Assay results reported in US9086425B2, “Carbamylated proteins and risk of cardiovascular disease” (The Cleveland Clinic Foundation, priority 2007, dated 2015).

Columns and labels:
homocitrulline levels = experiment: Effect of simvastatin on plasma levels of homocitrulline (randomized placebo-controlled study); type: in vivo, human; conditions: 6 weeks of treatment
Experimental: This study was intended to evaluate the effect of statin therapy on homocitrulline levels. Specimens came from archival materials from a randomized, double-blind, parallel-group, 4-arm, placebo-controlled, multi-center study conducted in 1997. Prior to randomization, subjects underwent a 4-week diet/placebo run-in period. Eligible patients were then randomized to 1 of 4 treatments (ratio 1:1:1:1): placebo, simvastatin 20, 40, or 80 mg, and received 6 weeks of treatment. One hundred and eighty eight out of 195 enrolled men and women completed the study. Subjects were required to have elevated TG (300 to 900 mg/dL), and many had comorbidities associated with the metabolic syndrome; however, though those with morbid obesity, uncontrolled hypertension, or severe hyperlipidemia were excluded. Archived serum and/or plasma that were drawn predose on Day 1 and on Day 42 were used in this analysis.

scavenger receptor SR-A1 = target: T1, scavenger receptor SR-A1 (Mus musculus, UniProt P30204); experiment: Carbamylated LDL binding studies with SR-A1 transfected cells / SR-A1 inhibitor; type: cell-based, murine; conditions: data not shown
T1 construct: expressed in transfected cells; host or cells: CHO cells, stably transfected
T1 sequence (P30204 1-458): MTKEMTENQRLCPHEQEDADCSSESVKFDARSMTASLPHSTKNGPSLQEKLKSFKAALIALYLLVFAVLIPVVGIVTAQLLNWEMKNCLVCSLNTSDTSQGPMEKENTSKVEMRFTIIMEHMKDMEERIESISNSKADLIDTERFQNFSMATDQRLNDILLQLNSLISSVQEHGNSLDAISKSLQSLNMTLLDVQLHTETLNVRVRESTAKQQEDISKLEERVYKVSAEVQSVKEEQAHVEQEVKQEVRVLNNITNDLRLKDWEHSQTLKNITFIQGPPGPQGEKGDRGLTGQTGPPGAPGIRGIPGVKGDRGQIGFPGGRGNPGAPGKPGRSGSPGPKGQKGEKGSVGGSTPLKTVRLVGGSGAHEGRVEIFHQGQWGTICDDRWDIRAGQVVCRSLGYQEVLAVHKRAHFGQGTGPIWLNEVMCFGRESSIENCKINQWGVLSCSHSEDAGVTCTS

[1] = tested on: aortic smooth muscle cells (both human and bovine); experiment: Aortic smooth muscle cell proliferation; type: cell-based; conditions: SR-A1 inhibitor present in culture media
Excerpt: 1,1′-dioctadecyl-3,3,3′,3′-tetramethylyindocarbocyanine perchlorate (DiI) was obtained from Molecular Probes (Eugene, Oreg.). Organic solvents were obtained from Fisher Scientific Co. (Pittsburgh, Pa.). Caspase-3/7 assay kit (Lot #220150) was purchased from Promega (Madison, Wis.) and cell proliferation ELISA, BrdU (colorimetric) kit (Lot #11647229001) was from Roche (Indianapolis, Ind.). All other reagents and materials were obtained from Sigma Chemical Co. (St. Louis, Mo.) unless otherwise indicated. Protein content was determined by the Markwell-modified Lowry protein assay^44. Human LDL and HDL were isolated from whole blood of healthy volunteers by established methods^45. Human myeloperoxidase (MPO) (donor: hydrogen peroxide, oxidoreductase, EC 1.11.1.7), NO2-LDL and AcLDL were prepared as described in Podrez et al^14.
In a separate series of studies, we therefore examined the impact of MPO-catalyzed lipoprotein carbamylation on these processes.

| Compound | Median % Change (SD) of homocitrulline (homocitrulline levels; simvastatin 20 mg, Day 42 vs predose Day 1, archived serum and/or plasma) | Median % Change (SD) of homocitrulline (homocitrulline levels; simvastatin 40 mg, Day 42 vs predose Day 1, archived serum and/or plasma) | Median % Change (SD) of homocitrulline (homocitrulline levels; simvastatin 80 mg, Day 42 vs predose Day 1, archived serum and/or plasma) | Median % Change (SD) of homocitrulline (homocitrulline levels; simvastatin combined (20, 40, 80 mg), Day 42 vs predose Day 1) | inhibition of specific binding of carbamylated LDL (scavenger receptor SR-A1) | effect on proliferation induced by carbamylated LDL [1] |
| --- | --- | --- | --- | --- | --- | --- |
| CCC(C)(C)C(=O)O[C@H]1C[C@@H](C)C=C2C=C[C@H](C)[C@H](CC[C@@H]3C[C@@H](O)CC(=O)O3)[C@H]21 [Simvastatin, simvastatin] | −100.0 (102.67) % | −100.0 (67.77) % | −63.44 (89.63) % | −100.0 (84.03) % | – | – |
| fucoidin | – | – | – | – | over 80% | markedly suppressed |
